Experimental data: patent publication US20230190924A1, “ANTIGEN OF ALLERGY AND EPITOPE THEREOF” (HOYU CO., LTD., priority 2017, published 2023)

What follows are substances tested on IgE antibodies from patients (assay: Epitope mapping (2) overlapping (10-amino-acid peptides) and (3) alanine scanning on peptide arrays). Conditions: overlapping peptides with flanking sequence.
Assay type: binding, human
Protocol: On the basis of the sequences (SEQ ID NOs: 272-295 for vitellogenin-2 precursor, SEQ ID NOs: 296-303 for vitellogenin-3, SEQ ID NOs: 304-311 for apolipoprotein B precursor, and SEQ ID NOs: 312-318 for vitellogenin-1 or lipovitellin-1) of the peptides bound to an IgE antibody in serum in a patient-specific manner as described above in (A), a library of overlapping peptide fragments (length: 10 amino acids) was prepared using the sequences of the peptides and sequences in which sequences were added so as to flank each peptide in the amino acid sequences of allergen components (amino acid sequences of SEQ ID NO: 59, 106 or 262 for vitellogenin-2 precursor, SEQ ID NO: 2, 13 or 47 for vitellogenin-3, SEQ ID NO: 152, 237 or 251 for apolipoprotein B, and SEQ ID NO: 18 for vitellogenin-1 or lipovitellin-1) comprising the sequences of the peptide to carry out epitope mapping.
The peptides to be synthesized were shifted by one amino acid.
The library was prepared by the same procedure as described above in (A), and the presence or absence of binding of an IgE antibody present in the serum of a patient and a non-egg-allergic subject to each peptide fragment was measured by the same technique as described above. Amino acids at positions where the binding activity against IgE antibodies from patients were lost or decreased in the peptides shifted by one amino acid while binding activity against IgE antibodies from non-egg-allergic subjects arose were confirmed as amino acids adversely affecting the specificity of binding to IgE antibodies.
Chemiluminescence intensity in images obtained by measurement was converted into a numeric value in the same manner as in (A) using ImageQuant TL (GE Healthcare). Numeric values determined from images obtained as a result of using only anti-human IgE antibody-HRP antibody without carrying out the procedures (2) and (3) described above in the subsection titled (3) Spotting of cellulose-bound peptide solution were […] numeric values determined from images obtained from results about the serum of 6 patients. It was determined that a peptide having the resulting value larger than 0 had no binding activity against IgE antibodies when having less than 20% of values obtained using the sequences (amino acid sequences of SEQ ID NO: 59, 106 or 262 for vitellogenin-2, SEQ ID NO: 2, 13 or 47 for vitellogenin-3, SEQ ID NO: 152, 237 or 251 for apolipoprotein B, and SEQ ID NO: 18 for vitellogenin-1 or lipovitellin-1) serving as the basis of overlapping, had binding activity, albeit poor, against IgE antibodies when having 20% or more and less than 50% thereof, had binding activity, albeit somewhat poor, against IgE antibodies when having 50% or more and less than 70% thereof, had almost equivalent binding activity against IgE antibodies when having 70% or more and less than 90% thereof, and had equivalent or good binding activity against IgE antibodies and thus had remaining binding activity against IgE antibodies when having 90% or more thereof.
From the amino acid sequences identified above in (A), a library of peptide fragments in which N-terminal amino acids were substituted one by one by alanine according to a technique called alanine scanning (Non Patent Literature 1) was prepared by the same technique as described above. The presence or absence of binding of an IgE antibody present in the serum of a patient and a non-egg-allergic subject to each peptide fragment was measured by the same technique as described above. Amino acids at positions where the binding activity against IgE antibodies from patients were lost or decreased by the substitution by alanine while binding activity against IgE antibodies from non-egg-allergic subjects arose were confirmed as amino acids important for exertion of original antigenicity, or amino acids influencing exertion of original antigenicity.

| Substance | binding to IgE antibodies from patients, sequence comprising a region amino-terminally adjacent to the epitope | binding to IgE antibodies from patients, sequence comprising a region carboxy-terminally adjacent to the epitope |
| --- | --- | --- |
| SEQ ID NO: 319: sequence comprising a region amino-terminally adjacent to epitope 1 (LKVRSPQVEE; epitope) | binding to IgE antibodies from patients | – |
| SEQ ID NO: 336: sequence comprising a region carboxy-terminally adjacent to epitope 3 (ALKCIGNMGE; epitope) | – | binding to IgE antibodies from patients |
| SEQ ID NO: 357: sequence comprising a region carboxy-terminally adjacent to epitope 5 (KLDSMSYRY; epitope) | – | binding to IgE antibodies from patients |

Next, values leading:

| binding to IgE antibodies from patients, sequence comprising a region amino-terminally adjacent to the epitope | binding to IgE antibodies from patients, sequence comprising a region carboxy-terminally adjacent to the epitope | Substance |
| --- | --- | --- |
| binding to IgE antibodies from patients | – | SEQ ID NO: 324: sequence comprising a region amino-terminally adjacent to epitope 2 (MFQMTIKKS; epitope) |
| binding to IgE antibodies from patients | – | SEQ ID NO: 342: sequence comprising a region amino-terminally adjacent to epitope 4 (DAITALKKIA; epitope) |
| – | binding to IgE antibodies from patients | SEQ ID NO: 351: sequence comprising a region carboxy-terminally adjacent to epitope 4 (PKTVQGYL; epitope) |
| binding to IgE antibodies from patients | – | SEQ ID NO: 353: sequence comprising a region amino-terminally adjacent to epitope 5 (CNIALKLLSP; epitope) |

Same assay, conditions: procedures (B) overlapping and (C) alanine scanning

| Substance | region within the epitope important for binding to IgE antibodies from patients |
| --- | --- |
| ELL (epitope) [SEQ ID NO: 637] | important for binding |
| SEQ ID NO: 327: region in epitope 2 (QMTIKKSQNV; epitope) | important for binding |
| SEQ ID NO: 333: region in epitope 3 (REDKMKLAL; epitope) | important for binding |
| SEQ ID NO: 335: region in epitope 3 (KMKLALKCIG; epitope) | important for binding |
| SEQ ID NO: 347: region in epitope 4 (LKKIA; epitope) | important for binding |
| SEQ ID NO: 350: region in epitope 4 (AWKDPKTV; epitope) | important for binding |
| SEQ ID NO: 356: region in epitope 5 (KLDS; epitope) | important for binding |

Other lines, results leading:

| region within the epitope important for binding to IgE antibodies from patients | Substance |
| --- | --- |
| important for binding | SEQ ID NO: 323: region in epitope 1 (VEEYNG; epitope) |
| important for binding | SEQ ID NO: 330: region in epitope 3 (RGREDKMK; epitope) |
| important for binding | SEQ ID NO: 331: region in epitope 3 (KMKLALKCIG; epitope) |
| important for binding | SEQ ID NO: 339: region in epitope 4 (ALKKIAWKDP; epitope) |
| important for binding | SEQ ID NO: 343: region in epitope 4 (LKKIAWKDP; epitope) |
| important for binding | SEQ ID NO: 344: region in epitope 4 (KIAWKDPKTV; epitope) |
| important for binding | SEQ ID NO: 346: region in epitope 4 (AWKDPKTVQG; epitope) |
| important for binding | SEQ ID NO: 355: region in epitope 5 (LLSPKLDS; epitope) |
